Test results taken from patent publication EP0453621A1, “Polymer-modified drugs having enhanced biological and pharmacological activities” (W.R. Grace & Co.-Conn., priority 1990, dated 1991).
Ends that are not written are not given here. Peptide text beside a SMILES is read from it.

What was measured:
[1] = Circulatory half-life of radioiodinated peptide or conjugate after tail vein injection; type: in vivo, C57B1/6 mice; settings: i.v. tail vein
Protocol: The conjugate from Example XIII was passed over a disposable Sephadex G25 column (PD10 from Pharmacia, Inc.) to separate free from polymer-bound peptide. Confirmation of the purity of the conjugate was obtained by HPLC. About 45 µg of conjugate (based on peptide) were radiolabeled with 125-iodine using the well known chloramine-T procedure. Free 125-iodine was separated from radiolabeled conjugate using a PD10 column. Of the original 30 µCi of Na¹²⁵I used for the iodination, more than 23 µCi were incorporated into the conjugate.
Portions of the radiolabeled YRGDS-Prepolymer A conjugate from Example XIV were injected into the tail veins of C57B1/6 mice. As a control, YRGDS free peptide was radioiodinated by the procedure described in Example XIV and also injected. At various times blood was withdrawn from the animals and the amount of radioiodine remaining in the circulation determined using a gamma counter. A biphasic clearance curve (α:β) was obtained for both species. […] Thus by coupling the peptide to this polymer its clearance rate from the circulation is markedly extended.

[2] = tested on: B16 cell; assay: Inhibition of B16 cell spreading on a plate coated with fibronectin; settings: the conjugate value is based on octapeptide, read-out: concentration for 50% inhibition of cell spreading
Protocol: The biological activity of the conjugate formed in Example XV was determined in an assay which measures inhibition of B16 cell spreading on a plate coated with fibronectin.

Row | IC50 [2] [µM] | Compound | t½α ([1]; first phase of biphasic clearance) [s] | label cleared in initial phase ([1]; in one minute, 125-iodine label)
1 |  | N=C(N)NCCC[C@H](NC(=O)[C@@H](N)Cc1ccc(O)cc1)C(=O)NCC(=O)N[C@@H](CC(=O)O)C(=O)N[C@@H](CO)C(=O)O [YRGDS, tyr-arg-gly-asp-ser] (H-YRGDS-OH) | 30 | about 75%
2 | 340 | GRGDSPAC-Prepolymer A conjugate: peptide gly-arg-gly-asp-ser-pro-ala-cys (SEQ. ID No. 3) conjugated with Prepolymer A (also: conjugated with Prepolymer A, site not given here) |  | 
